The results in this text go back to article PMC10047683, “A Novel Family of Lysosomotropic Tetracyclic Compounds for Treating Leukemia” (Cancers, 2023).

Assay type in all cases: cell-based
One test has as its system SKM1. Put plainly: AraC EC50 in parental and AraC resistant cells. Particulars: Homo sapiens.
For another test, the system named is HL60. In words: AraC EC50 in parental and AraC resistant cells. To be noted: Homo sapiens.
For the next test, the system named is KG1. In words: AraC EC50 in parental and AraC resistant cells. To be noted: Homo sapiens.
The next test deals with HS-5. Put plainly: Pancancer cell line panel viability (nontumor line). Particulars: HS-5 (nontumor); 10 µM; 48 h. As for the experimental part:
(§1) First, 2 × 10^5 (72 h assays in cell lines (Supplementary File S1)), 3 × 10^5 (48 h assays in cell lines) or 7.5 × 10^5 (primary AML, healthy donor buffy coats) cells per mL were cultured in 96-well plates, and all drugs were added at the indicated concentrations. In α-tocopherol experiments, cells were treated with growing concentrations of α-tocopherol and EDK drugs for 48 h. In the NAC and 3MA experiments, treatment was simultaneous with EDK compounds. In glucose deprivation experiments, cells were cultivated with a standard medium (glucose high, 2 g/L), a standard medium without glucose, or a standard medium with galactose (2 g/L) and without glucose. Cell viability was measured via 7-AAD (eBioscience) exclusion and Hoechst33342 (Sigma-Aldrich, St. Louis, MO, USA) positivity staining via flow cytometry, and the cell count was obtained through volume. In the experiments with the primary cells, analyses were performed inside the blast population as detected via blast gates (CD45^low SSC^int). For solid tumor cell lines, viability was analyzed using CellTiter-Glo® Luminescent Cell Viability Assay (Promega).
(§2) AML cell lines and cell cultures
(§3) Cell lines HL-60 (ACC-3), KG-1 (ACC-14), MonoMac-1 (ACC-252), Kasumi-1 […]
(§4) obtained from DSMZ. Cell lines THP-1 (TIB-202TM), MCF-7 (HTB-22™), MDA- […]
(§5) 3216™) and HS-5 (CRL-11882™) were obtained from ATCC. HBL-2 cell line was kindly supplied by Dr. Pérez-Galán (IDIBAPS, Barcelona, Spain). SKM-1 and U937 were kindly provided by Dr. Marcus Buschbeck (IJC, Badalona, Spain). All cell lines were cultured in the conditions indicated by the providers, and were tested for mycoplasma on a monthly basis.
(§6) All drugs were resuspended in H2O (Thermo Fischer Scientific), DMSO (Sigma-Aldrich) or ethanol (VWR) according to manufacturer’s specifications. - tocopherol, 3-methyladenine (3MA), arsenic trioxide (ATO) and N-acetyl-L-cysteine (NAC) were purchased from Sigma Aldrich. Chloroquine diphosphate was purchased from Merck. Etoposide and ionomycin were purchased from […]
(§7) (1 picture or pasted object on this page, not shown here)

A further test relates to HEK-293T. Described as above. Particulars: HEK-293T (nontumor); 10 µM; 48 h. How it is done: as §1, §2, §3, §4, §5, §6, §7
The subject of test [1] is intracellular calcium in HL60 cells. Put plainly: Calcium mobilization assay (Fura2 probe). Particulars: 10 µM EDK-87/EDK-88, 50 µM chloroquine. How it is done:
1,000 cells of AML cell lines or 50,000 primary cells (both AML and lin-depleted UCB) were treated at the indicated concentration for 18 h, and cultured in 1 mL of MethoCult H4034 Optimum (StemCell Technologies, Vancouver, BC, Canada).
Colonies were screened based on morphology and cellularity at day 7 (cell lines) […]
Calcium mobilization assay
1 x 10^6 cells per mL were loaded for 30’ at 37 °C with the Fura-2-AM probe (Thermo Fisher) at a final 2 µM concentration in pre-warmed calcium- and magnesium-free Hanks BSA solution. Cells were then washed and resuspended in Hanks BSA solution with calcium and magnesium at 3 x 10^5 cells per mL. In parallel, 50µL of drugs in Hanks BSA solution with calcium and magnesium were added to 96-well black wall clear bottom plates and background fluorescence […]
Cells were then added to the plate
(50µL/well) and fluorescence was acquired at indicated timepoints using a Synergy HT Multi-Detection Microplate Reader (BioTek). For the analysis, all values were subtracted their corresponding background fluorescence, and the ratio 340/380 was calculated. Finally, ratios were normalized to vehicle-treated […]
Semi-Quantitative Real Time PCR
Background: Calcium flux is commonly read through the fluorescence of an indicator in the cells.

A further test deals with M14. Put plainly: Pancancer cell line panel viability. Particulars: 10 µM, 48 h. As for the experimental part: as §1, §2, §3, §4, §5, §6, §7
A further test has as its system NCI. In words: Pancancer cell line panel viability. Particulars: 10 µM, 48 h. As for the experimental part: as §1, §2, §3, §4, §5, §6, §7
For another test, the system named is CAKI. In words: Pancancer cell line panel viability. To be noted: 10 µM, 48 h. As for the experimental part:
as §1, §2, §3, §4, §5, §6, §7

For a further test, the system named is SR. Put plainly: Pancancer cell line panel viability. Particulars: 10 µM, 48 h. How it is done: as §1, §2, §3, §4, §5, §6, §7
The test system of a further test is HCT-116. In words: Pancancer cell line panel viability. To be noted: 10 µM, 48 h. As for the experimental part: as §1, §2, §3, §4, §5, §6, §7
A further test has as its system DU-145. Put plainly: Pancancer cell line panel viability. To be noted: 10 µM, 48 h. As for the experimental part: as §1, §2, §3, §4, §5, §6, §7
A further test concerns JJN3. Put plainly: Pancancer cell line panel viability. To be noted: 10 µM, 48 h. How it is done:
as §1, §2, §3, §4, §5, §6, §7

The next test deals with HCT-15. In words: Pancancer cell line panel viability. Particulars: 10 µM, 48 h. As for the experimental part: as §1, §2, §3, §4, §5, §6, §7
In the next test the test system is A549. In words: Pancancer cell line panel viability. To be noted: 10 µM, 48 h. As for the experimental part:
as §1, §2, §3, §4, §5, §6, §7

The test system of a further test is OVCAR. Put plainly: Pancancer cell line panel viability. Particulars: 10 µM, 48 h. How it is done: as §1, §2, §3, §4, §5, §6, §7
For another test, the system named is MCF-7. In words: Pancancer cell line panel viability. Particulars: 10 µM, 48 h. As for the experimental part: as §1, §2, §3, §4, §5, §6, §7
The next test concerns HOP62. In words: Pancancer cell line panel viability. To be noted: 10 µM, 48 h. How it is done: as §1, §2, §3, §4, §5, §6, §7
The next test concerns RAMOS. Put plainly: Pancancer cell line panel viability. Particulars: 10 µM, 48 h. How it is done: as §1, §2, §3, §4, §5, §6, §7
The next test has as its system GRANTA. In words: Pancancer cell line panel viability. Particulars: 10 µM, 48 h. How it is done: as §1, §2, §3, §4, §5, §6, §7
Another test has as its system U266. In words: Pancancer cell line panel viability. Particulars: 10 µM, 48 h. As for the experimental part: as §1, §2, §3, §4, §5, §6, §7
The subject of another test is PC-3. Put plainly: Pancancer cell line panel viability. Particulars: 10 µM, 48 h. How it is done: as §1, §2, §3, §4, §5, §6, §7
For a further test, the system named is MDA-MB-435. In words: Pancancer cell line panel viability. To be noted: 10 µM, 48 h. As for the experimental part:
as §1, §2, §3, §4, §5, §6, §7

The next test deals with HBL2. In words: Pancancer cell line panel viability. Particulars: 10 µM, 48 h. How it is done: as §1, §2, §3, §4, §5, §6, §7
The test system of another test is MDA-MB-231. Put plainly: Pancancer cell line panel viability. Particulars: 10 µM, 48 h. As for the experimental part: as §1, §2, §3, §4, §5, §6, §7
The subject of a further test is MOLT4. Put plainly: Pancancer cell line panel viability. Particulars: 10 µM, 48 h. How it is done: as §1, §2, §3, §4, §5, §6, §7
A further test deals with K562. Put plainly: Pancancer cell line panel viability. To be noted: 10 µM, 48 h. How it is done:
as §1, §2, §3, §4, §5, §6, §7

In another test the test system is Jurkat. In words: Pancancer cell line panel viability. To be noted: 10 µM, 48 h. As for the experimental part: as §1, §2, §3, §4, §5, §6, §7
A further test relates to ACHN. In words: Pancancer cell line panel viability. To be noted: 10 µM, 48 h. As for the experimental part:
as §1, §2, §3, §4, §5, §6, §7

Usually EC50 stands for the concentration that produces a half-maximal response. Take `Nc1ccn([C@@H]2O[C@H](CO)[C@@H](O)[C@@H]2O)c(=O)n1` [AraC, cytarabine]: the EC50 is 4860 nM with SKM1 (SKM-1, SKM1 AraCR (AraC resistant)); 116 nM with SKM1 (SKM-1, SKM1 WT); 220 nM in the test on HL60 (HL-60, HL60 AraCR (AraC resistant)); 29.8 nM with HL60 (HL-60, HL60 WT); 400 nM with KG1 (KG-1, KG1 AraCR (AraC resistant)); 50 nM in the test on KG1 (KG-1, KG1 WT).

`CCN(CC)CCCC(C)Nc1ccnc2cc(Cl)ccc12` (centres unmarked) [CHL, chloroquine, reference compound]: the # Live cells refer to control amounted to 74% with HS-5; 67% with HEK-293T; 42% in the test with M14; 69% in the test with NCI; 55% in the test on CAKI; 23% in the test on SR. Also, the # Live cells refer to control in the test on HCT-116 was determined as 80%; with DU-145, 54%; with JJN3 it was 84%; in the test with HCT-15 it was 77%; in the test on A549, 59%; in the test on OVCAR, 74%. The # Live cells refer to control amounted to 54% in the test on MCF-7; 55% with HOP62; 115% with RAMOS; 51% in the test with GRANTA; 67% in the test with U266; 63% in the test with PC-3. The # Live cells refer to control with MDA-MB-435 is 44%; with HBL2, 62%; in the test with MDA-MB-231, 50%; in the test on MOLT4, 57%; with K562 it was 105%; in the test with Jurkat, 94%. The compound further had a # Live cells refer to control with ACHN of 93%. In [1], the intracellular calcium mobilization result is “failed to mobilize intracellular calcium”.
